From US20090215758A1, “Use of 2,5-Disubstituted Thiazol-4-One Derivatives in Drugs” (Gruenenthal GmbH, priority 2005, published 2009) come the findings set out here.

Assay [1] has as its target T1, vanilloid receptor 1 (VR1/TRPV1) of the rat species (Rattus norvegicus, UniProt O35433).
T1 construct: The spinal column is removed from beheaded rats; from tissue; host or cells: primary cells from rat dorsal root ganglia (DRGs)
The experiment in a line: Functional study on vanilloid receptor 1, FLIPR Ca2+ assay in rat dorsal root ganglia cells. The format is cell-based. The following applies: for inhibition at 10 µM: 5 min incubation, then 100 nM capsaicin, relative to maximum inhibition with 10 μM capsaicin, read-out: VR1 (rat) (% inhibition compared to 10 μM CP); for activation at 10 µM: read-out: VR1 (rat) (% stimulation compared to 10 μM CP); for EC50: unit inferred. The method, then:
The agonistic or antagonistic action of the substances to be studied on the vanilloid receptor 1 (VR1/TRPV1) of the rat species can be determined with the following assay. In this assay, the Ca^2+ current through the receptor channel is quantified with the aid of a Ca^2+-sensitive dye (Fluo-4 type, Molecular Probes Europe BV, Leiden the Netherlands) in a fluorescent imaging plate reader (FLIPR, Molecular Devices, Sunnyvale, USA).
Complete medium: 50 ml HAMS F12 Nutrient Mixture (Gibco Invitrogen GmbH, Karlsruhe, Germany) with 10% by volume of FCS (fetal calf serum, Gibco Invitrogen GmbH, Karlsruhe, Germany, heat-inactivated);
2 mM L-glutamine (Sigma, Munich, Germany);
1% by weight of AA solution (antibiotic/antimycotic solution, PAA, Pasching, Austria) and 25 ng/ml of NGF medium (2.5 S, Gibco Invitrogen GmbH, Karlsruhe, Germany)
Cell culture plate: poly-D-lysine-coated, black 96-hole plates with a clear bottom (96 well black/clear plate, BD Biosciences, Heidelberg, Germany) are additionally coated with laminin (Gibco Invitrogen GmbH, Karlsruhe, Germany) by diluting laminin to a concentration of 100 μg/ml with PBS (Ca—Mg-free PBS, Gibco Invitrogen GmbH, Karlsruhe, Germany). Aliquots having a concentration of 100 μg/ml of laminin are withdrawn and stored at −20° C. The aliquots are diluted with PBS in a ratio of 1:10 to 10 μg/ml of laminin and in each case 50 μl of the solution are pipetted into a well of the cell culture plate. The cell culture plates are incubated at 37° C. for at least two hours, the supernatant solution is removed by suction and the wells are each washed twice with PBS. The coated cell culture plates are stored with supernatant PBS which is not removed until directly before the application of the cells.
The spinal column is removed from beheaded rats and placed directly into cold HBSS buffer (Hank's buffered saline solution, Gibco Invitrogen GmbH, Karlsruhe, Germany), i.e. placed in an ice bath, which has been admixed with 1% by volume of an AA solution (antibiotic/antimycotic solution, PAA, Pasching, Austria). The spinal column is severed longitudinally and removed from the spinal canal together with fasciae. Subsequently, the dorsal root ganglia (DRGs) are removed and in turn stored in cold HBSS buffer admixed with 1% by volume of an AA solution. The DRGs freed completely of blood residues and spinal nerves are in each case transferred to 500 μl of cold type 2 collagenase (PAA, Pasching, Austria) and incubated at 37° C. for 35 minutes. […] After complete incubation, the enzyme solution is cautiously pipetted off and the remaining DRGs are each suspended with 500 μl of complete medium.
The DRGs are each suspended repeatedly, drawn through cannulas No. 1, No. 12 and No. 16 by means of a syringe and transferred to 50 ml Falcon tubes which are made up to 15 ml with complete medium. The contents of each Falcon tube are in each case filtered through a 70 μm Falcon filter insert and centrifuged at 1200 revolutions and room temperature for 10 minutes. The resulting pellet is in each case taken up in 250 μl of complete medium and the cell count is determined.
The number of cells in the suspension is adjusted to 3 times 10^5 per ml and in each case 150 μl of this suspension are added to one well of the cell culture plates coated as described above.
Subsequently, the cells are laden with 2 μM Fluo-4 and 0.01% by volume of Pluronic F127 (Molecular Probes Europe BV, Leiden, the Netherlands) in HBSS buffer (Hank's buffered saline solution, Gibco Invitrogen GmbH, Karlsruhe, Germany) at 37° C. for 30 min, washed 3× with HBSS buffer and, after a further incubation of 15 minutes, used in the FLIPR assay at room temperature for Ca^2+ measurement. The Ca^2+-dependent fluorescence is measured before and after addition of substances (λex=488 nm, λem=540 nm). The quantification is effected by the measurement of the highest fluorescence intensity (FC, fluorescence counts) over the time.

The target of assay [2] is T2, VR1 (human) (Homo sapiens, UniProt Q8NER1).
T2 construct: expressed in transfected cells; host or cells: CHO K1 cells (ECACC), stably transfected
T2 sequence (Q8NER1 whole entry): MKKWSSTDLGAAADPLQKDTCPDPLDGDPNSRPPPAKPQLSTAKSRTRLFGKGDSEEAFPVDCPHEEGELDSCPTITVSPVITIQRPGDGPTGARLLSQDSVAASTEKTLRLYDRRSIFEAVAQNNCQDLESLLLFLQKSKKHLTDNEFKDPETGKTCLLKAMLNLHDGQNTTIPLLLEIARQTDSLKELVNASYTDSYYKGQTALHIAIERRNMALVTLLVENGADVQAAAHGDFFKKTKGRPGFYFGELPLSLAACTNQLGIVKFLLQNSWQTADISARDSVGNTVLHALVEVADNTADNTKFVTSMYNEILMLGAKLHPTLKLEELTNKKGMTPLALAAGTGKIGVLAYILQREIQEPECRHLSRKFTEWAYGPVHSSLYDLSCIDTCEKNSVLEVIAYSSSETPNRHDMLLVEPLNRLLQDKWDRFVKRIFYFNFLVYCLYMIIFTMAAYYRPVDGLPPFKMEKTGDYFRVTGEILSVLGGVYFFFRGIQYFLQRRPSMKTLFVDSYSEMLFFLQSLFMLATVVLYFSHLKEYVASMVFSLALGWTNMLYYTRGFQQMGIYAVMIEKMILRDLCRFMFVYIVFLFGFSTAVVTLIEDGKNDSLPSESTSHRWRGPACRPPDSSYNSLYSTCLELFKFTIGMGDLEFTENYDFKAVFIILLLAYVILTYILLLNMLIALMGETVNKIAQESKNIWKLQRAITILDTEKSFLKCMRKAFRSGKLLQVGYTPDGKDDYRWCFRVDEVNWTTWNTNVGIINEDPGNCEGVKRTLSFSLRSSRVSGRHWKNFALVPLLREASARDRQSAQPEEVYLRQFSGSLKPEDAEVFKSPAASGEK
The experiment in a line: Functional study on vanilloid receptor (VR1), FLIPR Ca2+ assay in CHO K1 cells stably transfected with the VR1 gene. Conditions: for inhibition at 10 µM / activation at 10 µM: CHO-K1, test compound 10 μM; for inhibition at 10 µM: 5 min incubation, then 100 nM capsaicin, compared to 10 μM CP; for activation at 10 µM: Ca2+ signal relative to 10 μM capsaicin (CP), read-out: VR1 (human) (% stimulation compared to 10 μM CP); for EC50: unit inferred. In kind it is cell-based. From the text:
The agonistic or antagonistic action of the substances to be tested on vanilloid receptor (VR1) can also be determined with the assay which follows. In this assay, the Ca^2+ current through the channel is quantified with the aid of a Ca^2+-sensitive dye (Fluo-4 type, Molecular Probes, Europe BV, Leiden, the Netherlands) in a fluorescent imaging plate reader (FLIPR, Molecular Devices, Sunnyvale, USA).
Chinese hamster ovary cells (CHO K1 cells, European Collection of Cell Cultures (ECACC) Great Britain) are transfected stably with the VR1 gene. For functional studies, these cells are plated out onto poly-D-lysine-coated black 96-well plates with a clear bottom (BD Biosciences, Heidelberg, Germany) in a density of 25 000 cells/well. The cells are incubated overnight at 37° C. and 5% CO2 in a culture medium (Ham's Nutrient Mixture F12, 10% by volume of FCS (fetal calf serum), 18 μg/ml of L-proline). The next day, the cells are incubated with Fluo-4 (Fluo-4 2 μM, Pluronic F127 0.01% by volume, Molecular Probes in HBSS (Hank's buffered saline solution), Gibco Invitrogen GmbH, Karlsruhe, Germany) at 37° C. for 30 minutes. Subsequently, the plates are washed 3 times with HBSS buffer and, after a further incubation of 15 minutes at room temperature, used for Ca^2+ measurement in FLIPR. The Ca^2+-dependent fluorescence is measured before and after addition of the substances to be studied (wavelength λex=488 nm, λem=540 nm). The quantification is effected by measuring the highest fluorescence intensity (FC, fluorescence counts) over the time.
The FLIPR protocol consists of 2 substance additions. First, the substances to be tested (10 μM) are pipetted onto the cells and the Ca current is compared with the control (capsaicin 10 μM) (% activation based on the Ca^2+ signal after addition of 10 μM capsaicin). After incubation for 5 minutes, 100 nM capsaicin is applied and the current of Ca^2+ is likewise determined.

Setting [3] is: test compound 10 μM, Ca2+ signal relative to 10 μM capsaicin (CP).

Structures can show the parent of a compound that is named as a salt. Some results are limits rather than exact numbers.

T1 sequence (O35433 whole entry): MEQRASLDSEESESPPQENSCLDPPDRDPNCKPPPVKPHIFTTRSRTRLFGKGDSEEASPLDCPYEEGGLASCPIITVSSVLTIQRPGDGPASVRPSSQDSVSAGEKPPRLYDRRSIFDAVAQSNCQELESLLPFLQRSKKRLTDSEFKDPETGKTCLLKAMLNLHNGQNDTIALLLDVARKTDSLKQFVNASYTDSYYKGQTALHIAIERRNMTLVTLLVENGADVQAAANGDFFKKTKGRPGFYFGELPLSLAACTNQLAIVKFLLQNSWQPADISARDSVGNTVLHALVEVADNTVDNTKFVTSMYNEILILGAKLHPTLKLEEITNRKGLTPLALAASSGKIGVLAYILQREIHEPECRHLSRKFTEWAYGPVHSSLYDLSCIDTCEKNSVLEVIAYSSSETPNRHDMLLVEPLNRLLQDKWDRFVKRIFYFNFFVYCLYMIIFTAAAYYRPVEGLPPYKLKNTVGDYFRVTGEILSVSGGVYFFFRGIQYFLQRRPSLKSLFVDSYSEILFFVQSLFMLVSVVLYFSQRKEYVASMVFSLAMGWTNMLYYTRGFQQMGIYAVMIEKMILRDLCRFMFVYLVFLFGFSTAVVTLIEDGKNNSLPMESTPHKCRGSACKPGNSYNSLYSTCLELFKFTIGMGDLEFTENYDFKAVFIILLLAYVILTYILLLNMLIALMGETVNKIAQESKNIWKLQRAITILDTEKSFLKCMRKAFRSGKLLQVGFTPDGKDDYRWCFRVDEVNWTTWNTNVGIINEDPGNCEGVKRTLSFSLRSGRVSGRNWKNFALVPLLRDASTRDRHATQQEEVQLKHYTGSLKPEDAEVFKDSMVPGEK

Take `O=C1N=C(N2CCOCC2)SC1=CC=CSc1ccccc1` [Example 12, 2-morpholin-4-yl-5-(3-phenylsulfanylallylidene)thiazol-4-one]: the inhibition at 10 µM in assay [1] (test compound 10 μM) worked out at 68.4%; in assay [2], 54.3%. The activation at 10 µM in assay [1] (setting [3]) turned out to be 54%; in assay [2], 55.4%.

For `COc1ccc(C=C2SC(N3CCOCC3)=NC2=O)cc1OCc1ccccc1` [Example 13, 5-(3-benzyloxy-4-methoxybenzylidene)-2-morpholin-4-ylthiazol-4-one], the inhibition at 10 µM was found to be 46.2% in assay [1] (test compound 10 μM) and 11.1% in assay [2]. The activation at 10 µM in assay [1] (setting [3]) was 42.1%; in assay [2] it was 6.15%.

Consider `Cc1ccc(C=C2SC(N3CCSCC3)=NC2=O)cc1` [Example 14, 5-(4-methylbenzylidene)-2-thiomorpholin-4-ylthiazol-4-one hydrobromide], for which the inhibition at 10 µM in assay [1] (test compound 10 μM) was 82.1%; in assay [2] it was 89.4%. Moreover, the figures for the activation at 10 µM in assay [1] (setting [3]) and in assay [2] were 108% and 107%, respectively. Besides, the EC50 in assay [1] is 0.95 µM; in assay [2], 5.17 µM.

For the molecule `O=C1N=C(N2CCOCC2)SC1=Cc1ccc(Oc2ccccc2)cc1` [Example 17, 2-morpholin-4-yl-5-(4-phenoxybenzylidene)thiazol-4-one], the inhibition at 10 µM in assay [1] (test compound 10 μM) is 91.1%; in assay [2], 19.6%. Besides, the activation at 10 µM in assay [1] (setting [3]) was found to be 120%; in assay [2], 46%. For the same molecule, the concentration for a half-maximal effect (EC50) was 6.36 µM in assay [1] and 17.8 µM in assay [2].

`O=C1N=C(N2CCOCC2)SC1=Cc1cccc(Oc2ccccc2)c1` [Example 18, 2-morpholin-4-yl-5-(3-phenoxybenzylidene)thiazol-4-one]: the values for the inhibition at 10 µM in assay [1] (test compound 10 μM) and in assay [2] were 88% and 79.2%, respectively. In addition, the activation at 10 µM in assay [1] (setting [3]) came to 144%; in assay [2], 139%. Besides, the EC50 in assay [1] worked out at 1.29 µM; in assay [2], 3.65 µM.

Regarding `Cc1ccc(C=CC=C2SC(N3CCOCC3)=NC2=O)cc1` [Example 19, 2-morpholin-4-yl-5-(3-p-tolylallylidene)thiazol-4-one], the results for the inhibition at 10 µM in assay [1] (test compound 10 μM) and in assay [2] were 31.4% and 10.8%, respectively. Also, the activation at 10 µM in assay [1] (setting [3]) was 11.7%; in assay [2] it was 8.82%. Besides, the EC50 in assay [1] came to 7.76 µM; in assay [2] it was 13 µM.

With `O=C1N=C(N2CCOCC2)SC1=Cc1ccc(OCc2ccccc2)cc1` [Example 21, 5-(4-benzyloxybenzylidene)-2-morpholin-4-ylthiazol-4-one], the inhibition at 10 µM was found to be 50.1% in assay [1] (test compound 10 μM) and 28.5% in assay [2]. The values for the activation at 10 µM in assay [1] (setting [3]) and in assay [2] were 55.8% and 36.5%, respectively. Further, the EC50 worked out at 6.59 µM in assay [1] and 8.51 µM in assay [2].

For the molecule `O=C1N=C(N2CCSCC2)SC1=Cc1ccccc1C(F)(F)F` [Example 22, 2-thiomorpholin-4-yl-5-(2-trifluoromethylbenzylidene)thiazol-4-one], the inhibition at 10 µM in assay [1] (test compound 10 μM) turned out to be 88.1%; in assay [2], 80.8%. Further, the activation at 10 µM in assay [1] (setting [3]) came out at 116%; in assay [2], 64%. For the same molecule, the results for the half-maximal effective concentration (EC50) in assay [1] and in assay [2] were 8.48 µM and 9.06 µM, respectively.

With `O=C1N=C(N2CCSCC2)SC1=Cc1ccc(OC(F)(F)F)cc1` [Example 24, 2-thiomorpholin-4-yl-5-(4-trifluoromethoxybenzylidene)thiazol-4-one], the inhibition at 10 µM in assay [1] (test compound 10 μM) came to 91.3%; in assay [2], 61.6%. The activation at 10 µM in assay [1] (setting [3]) worked out at 110%; in assay [2], 61.3%. Further, the EC50 in assay [1] was 11.9 µM; in assay [2], more than 25 µM.

Take `O=C1N=C(N2CCSCC2)SC1=CC=Cc1ccccc1` [Example 25, 5-(3-phenylallylidene)-2-thiomorpholin-4-ylthiazol-4-one]: the inhibition at 10 µM in assay [1] (test compound 10 μM) is 87.2%. In addition, the “VR1 (rat) (% stimulation compared to 10 μM CP)” value in assay [1] (setting [3]) is recorded as 80.77%. In addition, in assay [2], the inhibition at 10 µM was determined as 37.6% and the activation at 10 µM was 29.1%.

Regarding `Cc1ccc(C=C2SC(N3CCN(c4ncccc4Cl)CC3)=NC2=O)cc1` [Example 30, 2-[4-(3-chloropyridin-2-yl)piperazin-1-yl]-5-(4-methylbenzylidene)thiazol-4-one], the inhibition at 10 µM is 97% in assay [1] (test compound 10 μM) and 73.3% in assay [2]. Moreover, the activation at 10 µM turned out to be 0.92% in assay [1] (setting [3]) and 0.06% in assay [2].

Consider `CC(=CC=C1SC(N2CCOCC2)=NC1=O)c1ccc(C)cc1` [Example 33, 2-morpholin-4-yl-5-(3-p-tolylbut-2-enylidene)thiazol-4-one], for which the inhibition at 10 µM in assay [1] (test compound 10 μM) stood at 64.8%; in assay [2] it was 14.7%. The activation at 10 µM in assay [1] (setting [3]) came out at 49.6%; in assay [2], 25.7%.

Regarding `CC(=CC=C1SC(N2CCOCC2)=NC1=O)c1ccc(C(C)(C)C)cc1` [Example 34, 5-[3-(4-tert-butylphenyl)but-2-enylidene]-2-morpholin-4-ylthiazol-4-one], the inhibition at 10 µM in assay [1] (test compound 10 μM) was found to be 88%; in assay [2], 89.3%. The activation at 10 µM in assay [1] (setting [3]) was determined as 101%; in assay [2] it was 111%.

In the case of `O=C1N=C(N2CCOCC2)SC1=Cc1ccc(OC(F)(F)F)cc1` [Example 36, 2-morpholin-4-yl-5-(4-trifluoromethoxybenzylidene)thiazol-4-one], the inhibition at 10 µM in assay [1] (test compound 10 μM) stood at 101%; in assay [2], 68.8%. Moreover, the activation at 10 µM is 67.7% in assay [1] (setting [3]) and 47.4% in assay [2].
